In PubChem BioAssay AID1259407 (Chemical Carcinogenesis Research Information System (CCRIS), 2018):
The source made the active and inactive calls. The rule behind the calls is not given here.

Test system: CCRIS mutagenicity, Ames/micronucleus/aberration tests
Assay: CCRIS mutagenicity studies
[1] = Test System: AMES SALMONELLA TYPHIMURIUM, Strain/Indicator: TA97, Metabolic Activation: HAMSTER, LIVER, S-9, AROCLOR 1254 (10%), Method: PREINCUBATION
[2] = Test System: AMES SALMONELLA TYPHIMURIUM, Strain/Indicator: TA97, Metabolic Activation: HAMSTER, LIVER, S-9, AROCLOR 1254 (30%), Method: PREINCUBATION
[3] = Test System: AMES SALMONELLA TYPHIMURIUM, Strain/Indicator: TA97, Metabolic Activation: NONE, Method: PREINCUBATION
[4] = Test System: AMES SALMONELLA TYPHIMURIUM, Strain/Indicator: TA97, Metabolic Activation: RAT, LIVER, S-9, AROCLOR 1254 (10%), Method: PREINCUBATION
[5] = Test System: AMES SALMONELLA TYPHIMURIUM, Strain/Indicator: TA97, Metabolic Activation: RAT, LIVER, S-9, AROCLOR 1254 (30%), Method: PREINCUBATION
[6] = Test System: AMES SALMONELLA TYPHIMURIUM, Strain/Indicator: TA98, Metabolic Activation: NONE, Method: PREINCUBATION
[7] = Test System: AMES SALMONELLA TYPHIMURIUM, Strain/Indicator: TA98, Metabolic Activation: RAT, LIVER, S-9, AROCLOR 1254 (10%), Method: PREINCUBATION
[8] = Test System: AMES SALMONELLA TYPHIMURIUM, Strain/Indicator: TA98, Metabolic Activation: RAT, LIVER, S-9, AROCLOR 1254 (30%), Method: PREINCUBATION
[9] = Test System: AMES SALMONELLA TYPHIMURIUM, Strain/Indicator: TA100, Metabolic Activation: NONE, Method: PREINCUBATION
[10] = Test System: AMES SALMONELLA TYPHIMURIUM, Strain/Indicator: TA100, Metabolic Activation: RAT, LIVER, S-9, AROCLOR 1254 (10%), Method: PREINCUBATION
[11] = Test System: AMES SALMONELLA TYPHIMURIUM, Strain/Indicator: TA100, Metabolic Activation: RAT, LIVER, S-9, AROCLOR 1254 (30%), Method: PREINCUBATION
[12] = Test System: AMES SALMONELLA TYPHIMURIUM, Strain/Indicator: TA1535, Metabolic Activation: HAMSTER, LIVER, S-9, AROCLOR 1254 (10%), Method: PREINCUBATION
[13] = Test System: AMES SALMONELLA TYPHIMURIUM, Strain/Indicator: TA1535, Metabolic Activation: HAMSTER, LIVER, S-9, AROCLOR 1254 (30%), Method: PREINCUBATION
[14] = Test System: AMES SALMONELLA TYPHIMURIUM, Strain/Indicator: TA1535, Metabolic Activation: NONE, Method: PREINCUBATION
[15] = Test System: AMES SALMONELLA TYPHIMURIUM, Strain/Indicator: TA1535, Metabolic Activation: RAT, LIVER, S-9, AROCLOR 1254 (10%), Method: PREINCUBATION
[16] = Test System: AMES SALMONELLA TYPHIMURIUM, Strain/Indicator: TA1535, Metabolic Activation: RAT, LIVER, S-9, AROCLOR 1254 (30%), Method: PREINCUBATION
[17] = Test System: AMES SALMONELLA TYPHIMURIUM, Strain/Indicator: TA1537, Metabolic Activation: HAMSTER, LIVER, S-9, AROCLOR 1254 (30%), Method: PREINCUBATION
[18] = Test System: AMES SALMONELLA TYPHIMURIUM, Strain/Indicator: TA1537, Metabolic Activation: NONE, Method: PREINCUBATION
[19] = Test System: AMES SALMONELLA TYPHIMURIUM, Strain/Indicator: TA1537, Metabolic Activation: RAT, LIVER, S-9, AROCLOR 1254 (30%), Method: PREINCUBATION
[20] = Test System: AMES SALMONELLA TYPHIMURIUM, Strain/Indicator: TA98, Metabolic Activation: NONE, Method: STANDARD PLATE
[21] = Test System: AMES SALMONELLA TYPHIMURIUM, Strain/Indicator: TA100, Metabolic Activation: NONE, Method: STANDARD PLATE

| Structure (SMILES) | mutagenic call [1] | mutagenic call [2] | mutagenic call [3] | mutagenic call [4] | mutagenic call [5] | mutagenic call [6] | mutagenic call [7] | mutagenic call [8] | mutagenic call [9] | mutagenic call [10] | mutagenic call [11] | mutagenic call [12] | mutagenic call [13] | mutagenic call [14] | mutagenic call [15] | mutagenic call [16] | mutagenic call [17] | mutagenic call [18] | mutagenic call [19] | mutagenic call [20] | other results |
| --- | --- | --- | --- | --- | --- | --- | --- | --- | --- | --- | --- | --- | --- | --- | --- | --- | --- | --- | --- | --- | --- |
| Cc1ccc(Cl)cc1 | inactive; negative | inactive; negative | inactive; negative | inactive; negative | inactive; negative | inactive; negative | inactive; negative | inactive; negative | inactive; negative | inactive; negative | inactive; negative | inactive; negative | inactive; negative | inactive; negative | inactive; negative | inactive; negative | inactive; negative | inactive; negative | inactive; negative | – | mutagenic call (Test System: AMES SALMONELLA TYPHIMURIUM, Strain/Indicator: TA98, Metabolic Activation: HAMSTER, LIVER, S-9, AROCLOR 1254 (10%), Method: PREINCUBATION): inactive; negative; mutagenic call (Test System: AMES SALMONELLA TYPHIMURIUM, Strain/Indicator: TA98, Metabolic Activation: HAMSTER, LIVER, S-9, AROCLOR 1254 (30%), Method: PREINCUBATION): inactive; negative; mutagenic call (Test System: AMES SALMONELLA TYPHIMURIUM, Strain/Indicator: TA98, Metabolic Activation: RAT LIVER S-9, PHENOBARBITAL AND BETA-NAPHTHOFLAVONE, Method: PREINCUBATION): inactive; negative; mutagenic call (Test System: AMES SALMONELLA TYPHIMURIUM, Strain/Indicator: TA100, Metabolic Activation: HAMSTER, LIVER, S-9, AROCLOR 1254 (10%), Method: PREINCUBATION): inactive; negative; mutagenic call (Test System: AMES SALMONELLA TYPHIMURIUM, Strain/Indicator: TA100, Metabolic Activation: HAMSTER, LIVER, S-9, AROCLOR 1254 (30%), Method: PREINCUBATION): inactive; negative; mutagenic call (Test System: AMES SALMONELLA TYPHIMURIUM, Strain/Indicator: TA100, Metabolic Activation: RAT LIVER S-9, PHENOBARBITAL AND BETA-NAPHTHOFLAVONE, Method: PREINCUBATION): inactive; negative; mutagenic call (Test System: AMES SALMONELLA TYPHIMURIUM, Strain/Indicator: TA102, Metabolic Activation: NONE, Method: PREINCUBATION): inactive; negative; mutagenic call (Test System: AMES SALMONELLA TYPHIMURIUM, Strain/Indicator: TA102, Metabolic Activation: RAT LIVER S-9, PHENOBARBITAL AND BETA-NAPHTHOFLAVONE, Method: PREINCUBATION): inactive; negative; mutagenic call (Test System: AMES SALMONELLA TYPHIMURIUM, Strain/Indicator: TA104, Metabolic Activation: NONE, Method: PREINCUBATION): inactive; negative; mutagenic call (Test System: AMES SALMONELLA TYPHIMURIUM, Strain/Indicator: TA104, Metabolic Activation: RAT LIVER S-9, PHENOBARBITAL AND BETA-NAPHTHOFLAVONE, Method: PREINCUBATION): inactive; negative; mutagenic call (Test System: AMES SALMONELLA TYPHIMURIUM, Strain/Indicator: TA1535, Metabolic Activation: RAT LIVER S-9, PHENOBARBITAL AND BETA-NAPHTHOFLAVONE, Method: PREINCUBATION): inactive; negative; mutagenic call (Test System: AMES SALMONELLA TYPHIMURIUM, Strain/Indicator: TA1537, Metabolic Activation: RAT LIVER S-9, PHENOBARBITAL AND BETA-NAPHTHOFLAVONE, Method: PREINCUBATION): inactive; negative; mutagenic call (Test System: E.COLI, Strain/Indicator: WP2UVRA/PKM101, Metabolic Activation: NONE, Method: PREINCUBATION): inactive; negative; mutagenic call (Test System: E.COLI, Strain/Indicator: WP2UVRA/PKM101, Metabolic Activation: RAT LIVER S-9, PHENOBARBITAL AND BETA-NAPHTHOFLAVONE, Method: PREINCUBATION): inactive; negative; mutagenic call (Test System: E.COLI, Strain/Indicator: WP2UVRA, Metabolic Activation: NONE, Method: PREINCUBATION): inactive; negative; mutagenic call (Test System: E.COLI, Strain/Indicator: WP2UVRA, Metabolic Activation: RAT LIVER S-9, PHENOBARBITAL AND BETA-NAPHTHOFLAVONE, Method: PREINCUBATION): inactive; negative |
| Cc1cc2c3c(ccc2c2ccccc12)C(O)C(O)[C@@H]1O[C@@H]31 (stereo partly specified) | – | – | – | – | – | – | – | – | inactive; negative | – | – | – | – | – | – | – | – | – | – | – | – |
| CC1(O)CC2CCC1(C)C2(C)C (stereo unspecified) | – | – | – | – | – | – | – | – | – | – | – | – | – | – | – | – | – | – | – | inactive; negative | mutagenic call (Test System: AMES SALMONELLA TYPHIMURIUM, Strain/Indicator: TA98, Metabolic Activation: RAT, LIVER, S-9, AROCLOR 1254, Method: STANDARD PLATE): inactive; negative; mutagenic call [21]: inactive; negative; mutagenic call (Test System: AMES SALMONELLA TYPHIMURIUM, Strain/Indicator: TA100, Metabolic Activation: RAT, LIVER, S-9, AROCLOR 1254, Method: STANDARD PLATE): inactive; negative |
| CCCCCCCCCCCC(=O)O | inactive; negative | inactive; negative | inactive; negative | inactive; negative | inactive; negative | inactive; negative | inactive; negative | inactive; negative | inactive; negative | inactive; negative | inactive; negative | inactive; negative | inactive; negative | inactive; negative | inactive; negative | inactive; negative | inactive; negative | inactive; negative | inactive; negative | – | mutagenic call (Test System: AMES SALMONELLA TYPHIMURIUM, Strain/Indicator: TA98, Metabolic Activation: HAMSTER, LIVER, S-9, AROCLOR 1254 (10 OR 30%), Method: PREINCUBATION): inactive; negative; mutagenic call (Test System: AMES SALMONELLA TYPHIMURIUM, Strain/Indicator: TA100, Metabolic Activation: HAMSTER, LIVER, S-9, AROCLOR 1254 (10 OR 30%), Method: PREINCUBATION): inactive; negative; mutagenic call (Test System: AMES SALMONELLA TYPHIMURIUM, Strain/Indicator: TA1537, Metabolic Activation: HAMSTER, LIVER, S-9, AROCLOR 1254 (10%), Method: PREINCUBATION): inactive; negative |
| CCC(C)c1ccc(/C=C/c2ccc([N+](=O)[O-])cc2)cc1 (stereo unspecified) | – | – | – | – | – | – | – | – | – | – | – | – | – | – | – | – | – | – | – | active; positive | mutagenic call (Test System: AMES SALMONELLA TYPHIMURIUM, Strain/Indicator: TA98, Metabolic Activation: RAT, LIVER, S-9, AROCLOR, Method: STANDARD PLATE): active; positive; mutagenic call [21]: inactive; negative; mutagenic call (Test System: AMES SALMONELLA TYPHIMURIUM, Strain/Indicator: TA100, Metabolic Activation: RAT, LIVER, S-9, AROCLOR, Method: STANDARD PLATE): active; positive |
